Results reported in PubChem BioAssay (NCI).
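Interpolation was linear, between the two tested concentrations surrounding the appropriate level; five concentrations were tested over 48 hours in 96-well plates. TGI: concentration producing complete growth inhibition.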

Experiments:
Assay in all cases: NCI anticancer screen, dose series, 48 h
RXF-631 renal = system: RXF-631 renal
RPMI-8226 leukemia = system: RPMI-8226 leukemia
KM12 colon = system: KM12 colon
KM20L2 colon = system: KM20L2 colon
MALME-3M melanoma = system: MALME-3M melanoma
XF 498 CNS = system: XF 498 CNS
SK-MEL-2 melanoma = system: SK-MEL-2 melanoma
DLD-1 colon = system: DLD-1 colon
COLO 205 colon = system: COLO 205 colon
DMS 273 small cell lung = system: DMS 273 small cell lung
HOP-62 NSCLC = system: HOP-62 NSCLC
SK-MEL-5 melanoma = system: SK-MEL-5 melanoma
EKVX NSCLC = system: EKVX NSCLC
DMS 114 small cell lung = system: DMS 114 small cell lung
A549 NSCLC = system: A549 NSCLC
U251 CNS = system: U251 CNS
OVCAR-8 ovarian = system: OVCAR-8 ovarian
SN12C renal = system: SN12C renal
RXF 393 renal = system: RXF 393 renal
LOX IMVI melanoma = system: LOX IMVI melanoma
SF-539 CNS = system: SF-539 CNS
OVCAR-3 ovarian = system: OVCAR-3 ovarian
UO-31 renal = system: UO-31 renal
SNB-19 CNS = system: SNB-19 CNS
A498 renal = system: A498 renal
ACHN renal = system: ACHN renal
SW-620 colon = system: SW-620 colon
NCI-H522 lung = system: NCI-H522 lung
SF-295 CNS = system: SF-295 CNS
HCT-15 colon = system: HCT-15 colon
LXFL 529 NSCLC = system: LXFL 529 NSCLC
HOP-18 NSCLC = system: HOP-18 NSCLC
HCT-116 colon = system: HCT-116 colon
UACC-257 melanoma = system: UACC-257 melanoma
M19-MEL melanoma = system: M19-MEL melanoma
NCI-H23 lung = system: NCI-H23 lung
HL-60(TB) leukemia = system: HL-60(TB) leukemia
K-562 leukemia = system: K-562 leukemia
786-0 renal = system: 786-0 renal
IGROV1 ovarian = system: IGROV1 ovarian
UACC-62 melanoma = system: UACC-62 melanoma
SK-OV-3 ovarian = system: SK-OV-3 ovarian
SF-268 CNS = system: SF-268 CNS
OVCAR-4 ovarian = system: OVCAR-4 ovarian
CCRF-CEM leukemia = system: CCRF-CEM leukemia
SNB-75 CNS = system: SNB-75 CNS
HT29 colon = system: HT29 colon
SNB-78 CNS = system: SNB-78 CNS
M14 melanoma = system: M14 melanoma
SK-MEL-28 melanoma = system: SK-MEL-28 melanoma
SR leukemia = system: SR leukemia
MOLT-4 leukemia = system: MOLT-4 leukemia
OVCAR-5 ovarian = system: OVCAR-5 ovarian
HOP-92 NSCLC = system: HOP-92 NSCLC
NCI-H460 lung = system: NCI-H460 lung
NCI-H226 lung = system: NCI-H226 lung

O=C1CCC2(c3ccc(Cl)cc3)Nc3cc(Cl)ccc3N12 (centres undefined)
TGI (RXF-631 renal): 28.9 µM
TGI (RPMI-8226 leukemia): > 100 µM
TGI (KM12 colon): 24.4 µM
TGI (KM20L2 colon): 28.9 µM
TGI (MALME-3M melanoma): 24.5 µM
TGI (XF 498 CNS): 15 µM
TGI (SK-MEL-2 melanoma): 23.8 µM
TGI (DLD-1 colon): 20 µM
TGI (COLO 205 colon): 18 µM
TGI (DMS 273 small cell lung): 22.3 µM
TGI (HOP-62 NSCLC): 29.2 µM
TGI (SK-MEL-5 melanoma): 25.2 µM
TGI (EKVX NSCLC): 29.1 µM
TGI (DMS 114 small cell lung): 21 µM
TGI (A549 NSCLC): 26.5 µM
TGI (U251 CNS): 24.3 µM
TGI (OVCAR-8 ovarian): 20.6 µM
TGI (SN12C renal): 28.6 µM
TGI (RXF 393 renal): 24.6 µM
TGI (LOX IMVI melanoma): 24.5 µM
TGI (SF-539 CNS): 7.32 µM
TGI (OVCAR-3 ovarian): 22.4 µM
TGI (UO-31 renal): 29.2 µM
TGI (SNB-19 CNS): 42.6 µM
TGI (A498 renal): 24.6 µM
TGI (ACHN renal): 24 µM
TGI (SW-620 colon): 19.6 µM
TGI (NCI-H522 lung): 22.6 µM
TGI (SF-295 CNS): 21.4 µM
TGI (HCT-15 colon): 25.3 µM
TGI (LXFL 529 NSCLC): 24.6 µM
TGI (HOP-18 NSCLC): 14.6 µM
TGI (HCT-116 colon): 19.5 µM
TGI (UACC-257 melanoma): 28.7 µM
TGI (M19-MEL melanoma): 25.5 µM
TGI (NCI-H23 lung): 23.2 µM
TGI (HL-60(TB) leukemia): 12 µM
TGI (K-562 leukemia): 14.1 µM
TGI (786-0 renal): 21.8 µM
TGI (IGROV1 ovarian): 28.7 µM
TGI (UACC-62 melanoma): 21.2 µM
TGI (SK-OV-3 ovarian): 40.1 µM
TGI (SF-268 CNS): 25.8 µM
TGI (OVCAR-4 ovarian): 23.1 µM
TGI (CCRF-CEM leukemia): 10.7 µM
TGI (SNB-75 CNS): 27.7 µM
TGI (HT29 colon): 25.2 µM
TGI (SNB-78 CNS): 43.4 µM
TGI (M14 melanoma): 28.7 µM
TGI (SK-MEL-28 melanoma): 25.3 µM
TGI (SR leukemia): > 100 µM

N#CC(C(=O)/C(=N\NC(N)=O)C(C#N)c1ccc(Cl)cc1)c1ccc(Cl)cc1 (centres undefined)
TGI (RXF-631 renal): > 100 µM
TGI (MOLT-4 leukemia): > 100 µM
TGI (RPMI-8226 leukemia): > 100 µM
TGI (KM12 colon): > 100 µM
TGI (KM20L2 colon): > 100 µM
TGI (MALME-3M melanoma): > 100 µM
TGI (XF 498 CNS): > 100 µM
TGI (SK-MEL-2 melanoma): > 100 µM
TGI (DLD-1 colon): > 100 µM
TGI (COLO 205 colon): > 100 µM
TGI (HOP-62 NSCLC): > 100 µM
TGI (SK-MEL-5 melanoma): > 100 µM
TGI (EKVX NSCLC): > 100 µM
TGI (DMS 114 small cell lung): > 100 µM
TGI (A549 NSCLC): > 100 µM
TGI (U251 CNS): > 100 µM
TGI (OVCAR-8 ovarian): > 100 µM
TGI (SN12C renal): > 100 µM
TGI (RXF 393 renal): > 100 µM
TGI (LOX IMVI melanoma): > 100 µM
TGI (SF-539 CNS): > 100 µM
TGI (OVCAR-3 ovarian): > 100 µM
TGI (UO-31 renal): > 100 µM
TGI (SNB-19 CNS): > 100 µM
TGI (A498 renal): > 100 µM
TGI (ACHN renal): > 100 µM
TGI (SW-620 colon): > 100 µM
TGI (OVCAR-5 ovarian): > 100 µM
TGI (NCI-H522 lung): > 100 µM
TGI (SF-295 CNS): > 100 µM
TGI (HOP-92 NSCLC): > 100 µM
TGI (HCT-15 colon): > 100 µM
TGI (LXFL 529 NSCLC): > 100 µM
TGI (HOP-18 NSCLC): > 100 µM
TGI (HCT-116 colon): > 100 µM
TGI (UACC-257 melanoma): > 100 µM
TGI (M19-MEL melanoma): > 100 µM
TGI (NCI-H23 lung): > 100 µM
TGI (HL-60(TB) leukemia): > 100 µM
TGI (K-562 leukemia): > 100 µM
TGI (786-0 renal): > 100 µM
TGI (NCI-H460 lung): > 100 µM
TGI (NCI-H226 lung): > 100 µM
TGI (IGROV1 ovarian): > 100 µM
TGI (UACC-62 melanoma): > 100 µM
TGI (SK-OV-3 ovarian): > 100 µM
TGI (SF-268 CNS): > 100 µM
TGI (OVCAR-4 ovarian): > 100 µM
TGI (CCRF-CEM leukemia): > 100 µM
TGI (HT29 colon): > 100 µM
TGI (SNB-78 CNS): > 100 µM
TGI (M14 melanoma): > 100 µM
TGI (SK-MEL-28 melanoma): > 100 µM
